For 37 molecules, EC50 results are on record in patent US11040954B1, “CXCR3 receptor agonists” (RECEPTOS LLC, priority 2016, dated 2021).

In this assay the target is T1, CXCR3 (Homo sapiens, UniProt P49682).
T1 construct: host or cells: CHO-K1 (cAMP Hunter CHOK1 CXCR3 Gi cell line)
T1 sequence (P49682 1-368): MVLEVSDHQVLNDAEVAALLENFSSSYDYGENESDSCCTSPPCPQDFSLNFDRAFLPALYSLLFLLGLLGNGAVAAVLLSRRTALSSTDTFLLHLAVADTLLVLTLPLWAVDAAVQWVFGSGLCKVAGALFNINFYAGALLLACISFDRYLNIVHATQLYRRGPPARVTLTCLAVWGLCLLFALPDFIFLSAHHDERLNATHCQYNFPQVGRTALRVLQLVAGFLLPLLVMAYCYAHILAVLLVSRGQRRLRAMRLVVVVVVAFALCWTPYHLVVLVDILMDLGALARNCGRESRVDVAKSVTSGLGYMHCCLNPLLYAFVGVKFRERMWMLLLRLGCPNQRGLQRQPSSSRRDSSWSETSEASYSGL
Briefly: CXCR3 cAMP agonist assay (cAMP Hunter CHOK1 CXCR3 Gi cell line, forskolin-stimulated, HitHunter cAMP detection). The format is cell-based. As to conditions: cAMP Hunter CHOK1 CXCR3 Gi cells, 20 μM forskolin, 30 minutes; read-out: Activity (CXCR3 cAMP agonist assay compound EC50). In short, it runs like this: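 CHOK1 cells expressing human CXCR3 with Gi coupling, 50,000/well in suspension in HBSS/10 mM HEPES/0.1% BSA pH 7.4, were co-treated with 20 μM forskolin and compound (12-point, 0-10 μM, 1% DMSO) for 30 min. cAMP was read by enzyme-complementation luminescence; CXCL11 dose response set maximum efficacy.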
Broadly, the EC50 is the concentration that produces a half-maximal response. With `NCC[C@H](NC(=O)[C@@H]1Cc2ccccc2CN1C(=O)CCC(=O)c1ccccc1)C(=O)Nc1cccc(Cl)c1C(F)(F)F` [Compound 14-16], the EC50 lay in the range of 250 to 500 nM.

On to `NCC[C@H](NC(=O)[C@@H]1Cc2ccccc2CN1C(=O)CCC(=O)c1ccccc1)C(=O)Nc1cc(Cl)c(Cl)c(Cl)c1` [Compound 14-4], for which the concentration for a half-maximal effect (EC50) is less than 50 nM. As for `COc1ccccc1NC(=O)[C@H](CCN)NC(=O)[C@@H]1Cc2ccccc2CN1C(=O)CCC(=O)c1ccccc1` [Compound 1-35], the figure is 250 to 500 nM; as for `Cc1c(Cl)ccc(NC(=O)[C@H](CCN)NC(=O)[C@@H]2Cc3ccccc3CN2C(=O)CCC(=O)N2CCCCC2(C)C)c1Cl` [Compound 15-52], less than 50 nM. With `Cc1ccc(NC(=O)C2(NC(=O)[C@@H]3Cc4ccccc4CN3C(=O)CCC(=O)c3ccccc3)CCNCC2)c(F)c1` [Compound 13-2] the figure was 50 to 250 nM. As for `COC1CCN(C(=O)CCC(=O)N2Cc3ccccc3C[C@H]2C(=O)N[C@@H](CCN)C(=O)Nc2ccc(Cl)c(C)c2)CC1` [Compound 12-42], the figure is less than 50 nM. As to `NCC[C@H](NC(=O)[C@@H]1Cc2ccccc2CN1C(=O)CCC(=O)N1CCCC(CF)C1)C(=O)Nc1ccc(Cl)c(Cl)c1F` (stereo partly shown) [Compound 15-25], the EC50 was less than 50 nM. As for `Cc1cc(NC(=O)[C@H](CCN2CCCC2)NC(=O)[C@@H]2Cc3ccccc3CN2C(=O)CCC(=O)c2ccccc2)ccc1Cl` [Compound 3-8], the figure is less than 50 nM; as for `NCC[C@H](NC(=O)[C@@H]1Cc2ccccc2CN1C(=O)CCC(=O)c1ccccc1)C(=O)Nc1c(Cl)cccc1Cl` [Compound 14-7], more than 500 nM; as for `CCC1CCCN(C(=O)CCC(=O)N2Cc3ccccc3C[C@H]2C(=O)N[C@@H](CCN)C(=O)Nc2ccc(Cl)c(C)c2)C1` (stereo partly shown) [Compound 12-120], less than 50 nM. Take `Cc1ccc(Cl)c(NC(=O)[C@H](CCN)NC(=O)[C@@H]2Cc3ccccc3CN2C(=O)CCC(=O)c2ccccc2)c1` [Compound 2-35]: the concentration for a half-maximal effect (EC50) is 50 to 250 nM. In the case of `Cc1cccc(NC(=O)[C@H](CCN)NC(=O)[C@@H]2Cc3ccccc3CN2C(=O)CCC(=O)c2ccccc2)c1O` [Compound 2-50], the 50% effective concentration (EC50) was in the range of 250 to 500 nM. As for `CCc1ccc(NC(=O)[C@H](CCCCN)NC(=O)[C@@H]2Cc3ccccc3CN2C(=O)CCC(=O)c2ccccc2)cc1CC` [Compound 1-16], the figure is 50 to 250 nM; as for `NCC[C@H](NC(=O)[C@@H]1Cc2ccccc2CN1C(=O)CCC(=O)c1ccccc1)C(=O)Nc1ccc2cccnc2c1` [Compound 2-45], 250 to 500 nM. With `Cc1cc(NC(=O)[C@H](CCN)NC(=O)[C@@H]2Cc3ccccc3CN2C(=O)CCC(=O)N2CCC(O)CC2)ccc1Cl` [Compound 12-6] the figure was 50 to 250 nM. With `COc1cc(C)c(F)cc1NC(=O)[C@H](CCN)NC(=O)[C@@H]1Cc2ccccc2CN1C(=O)CCC(=O)c1ccccc1` [Compound 2-71] the figure was 50 to 250 nM; with `NCC[C@H](NC(=O)[C@@H]1Cc2ccccc2CN1C(=O)CCC(=O)c1ccccc1)C(=O)Nc1ccc2c(c1)CCCC2` [Compound 2-46], less than 50 nM. As to `Cc1cc(NC(=O)[C@H](CCN)NC(=O)[C@@H]2Cc3ccccc3CN2C(=O)CCC(=O)N2CCC(F)CC2)ccc1Cl` [Compound 12-67], the concentration giving a half-maximal response (EC50) is less than 50 nM. With `O=C(NC1(C(=O)Nc2ccc(Cl)c(Cl)c2F)CCNCC1)[C@@H]1Cc2ccccc2CN1C(=O)CCC(=O)N1CCCC12CCC2` [Compound 12-136] the figure was less than 50 nM; with `NCC[C@H](NC(=O)[C@@H]1Cc2ccccc2CN1C(=O)CCC(=O)N1CCC[C@@H]1c1ccccc1)C(=O)Nc1ccc(Cl)c(Cl)c1F` [Compound 12-148], 250 to 500 nM; with `NCC[C@H](NC(=O)[C@@H]1Cc2ccccc2CN1C(=O)CCC(=O)N1CCC2(CC1)COC2)C(=O)Nc1ccc(Cl)c(Cl)c1F` [Compound 15-12], 250 to 500 nM.

Turning to `Cc1cc(NC(=O)[C@H](CCCNC(=N)N)NC(=O)[C@@H]2Cc3ccccc3CN2C(=O)CCC(=O)c2ccccc2)ccc1Cl` [Compound 1-32], the EC50 is less than 50 nM.

As for `NCC[C@H](NC(=O)[C@@H]1Cc2ccccc2CN1C(=O)CCC(=O)N1CCC(C(F)(F)F)C1)C(=O)Nc1ccc(Cl)c(Cl)c1F` (stereo partly shown) [Compound 15-47], the half-maximal effective concentration (EC50) is less than 50 nM. Consider `CC[C@@H]1CCN(C(=O)CCC(=O)N2Cc3ccccc3C[C@H]2C(=O)N[C@@H](CCN)C(=O)Nc2ccc(Cl)c(C)c2)C1` [Compound 12-154], for which the concentration giving a half-maximal response (EC50) is less than 50 nM. As to `Cc1cccc(NC(=O)[C@H](CCCCN)NC(=O)[C@@H]2Cc3ccccc3CN2C(=O)CCC(=O)c2ccccc2)c1` [Compound 1-10], the EC50 lay within 50 to 250 nM. With `Cc1cc(NC(=O)[C@H](CCN)NC(=O)[C@@H]2Cc3ccccc3CN2C(=O)CCC(=O)N2CCC(C)(C)C2)ccc1Cl` [Compound 12-29] the figure was less than 50 nM; with `NCC[C@H](NC(=O)[C@@H]1Cc2ccccc2CN1C(=O)CCC(=O)c1ccccc1)C(=O)Nc1ccc(F)c(F)c1` [Compound 2-8], more than 500 nM. With `Cc1cc(NC(=O)[C@H](Cc2cncn2C)NC(=O)[C@@H]2Cc3ccccc3CN2C(=O)CCC(=O)c2ccccc2)ccc1Cl` [Compound 5-2] the figure was 50 to 250 nM; with `Cc1cc(NC(=O)[C@H](CCN2CCNC(=O)C2)NC(=O)[C@@H]2Cc3ccccc3CN2C(=O)CCC(=O)c2ccccc2)ccc1Cl` [Compound 17-3], 50 to 250 nM. With `COc1cc(Cl)c(C)cc1NC(=O)[C@H](CCN)NC(=O)[C@@H]1Cc2ccccc2CN1C(=O)CCC(=O)c1ccccc1` [Compound 2-25] the figure was less than 50 nM. Take `CC1(C)CCCCN1C(=O)CCC(=O)N1Cc2ccccc2C[C@H]1C(=O)NC(CC12CC(N)(C1)C2)C(=O)Nc1ccc(Cl)c(Cl)c1F` (stereo partly drawn) [Compound 33-1, (3S)—N-(3-(3-aminobicyclo[1.1.1]pentan-1-yl)-1-((3,4-dichloro-2-fluorophenyl)amino)-1-oxopropan-2-yl)-2-(4-(2,2-dimethylpiperidin-1-yl)-4-oxobutanoyl)-1,2,3,4-tetrahydroisoquinoline-3-carboxamide]: the EC50 was less than 50 nM.

Take `Cc1cc(NC(=O)C(NC(=O)[C@@H]2Cc3ccccc3CN2C(=O)CCC(=O)c2ccccc2)C2CCN(C)CC2)ccc1Cl` (mixture of isomers) [Compound 6-5]: the concentration giving a half-maximal response (EC50) was 50 to 250 nM. As for `CO[C@@H]1CCCN(C(=O)CCC(=O)N2Cc3ccccc3C[C@H]2C(=O)N[C@@H](CCN)C(=O)Nc2ccc(Cl)c(Cl)c2F)C1` [Compound 15-27], the figure is less than 50 nM; as for `Cc1c(Cl)ccc(NC(=O)C(CCN2CCC(O)CC2)NC(=O)[C@@H]2Cc3ccccc3CN2C(=O)CCC(=O)c2ccccc2)c1Cl` (mixture of isomers) [Compound 25-1, (3S)—N-(1-((2,4-dichloro-3-methylphenyl)amino)-4-(4-hydroxypiperidin-1-yl)-1-oxobutan-2-yl)-2-(4-oxo-4-phenylbutanoyl)-1,2,3,4-tetrahydroisoquinoline-3-carboxamide], 50 to 250 nM. Regarding `Cc1cc(NC(=O)[C@H](CCN)NC(=O)[C@@H]2Cc3ccccc3CN2C(=O)CCC(=O)c2ccccc2)cc(C)c1Cl` [Compound 2-39], the concentration giving a half-maximal response (EC50) was less than 50 nM. In the case of `Cc1ccc(NC(=O)[C@H](CCN)NC(=O)[C@@H]2Cc3ccccc3CN2C(=O)CCC(=O)c2ccccc2)cc1Cl` [Compound 2-16], the EC50 is less than 50 nM. Regarding `Cc1cc(NC(=O)[C@H](CCN)NC(=O)[C@@H]2Cc3ccccc3CN2C(=O)CCC(=O)N2CC3CC(C3)C2)ccc1Cl` [Compound 12-66], the EC50 is less than 50 nM.
